# Assay results taken from patent publication US20110105509A1 (Wyeth, LLC, priority 2009, published 2011).
# Biological target: T1, CRTH2 (Homo sapiens, UniProt Q9Y5Y4)
# T1 construct: expressed in transfected cells; host or cells: CHO cells
# T1 sequence (Q9Y5Y4 1-395): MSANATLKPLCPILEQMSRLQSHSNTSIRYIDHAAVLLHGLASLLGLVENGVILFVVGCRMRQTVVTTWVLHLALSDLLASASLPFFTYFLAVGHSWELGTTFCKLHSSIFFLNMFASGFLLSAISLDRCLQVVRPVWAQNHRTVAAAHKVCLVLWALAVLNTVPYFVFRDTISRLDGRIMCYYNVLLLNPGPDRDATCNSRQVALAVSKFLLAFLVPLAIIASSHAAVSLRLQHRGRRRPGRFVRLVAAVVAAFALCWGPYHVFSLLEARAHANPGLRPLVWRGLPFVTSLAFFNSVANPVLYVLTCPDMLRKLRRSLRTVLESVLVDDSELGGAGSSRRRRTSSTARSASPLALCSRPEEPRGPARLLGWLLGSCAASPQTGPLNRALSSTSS
# Assay: FRET based competitive immunoassay (cAMP) in CRTH2 expressing CHO cells
# Format: cell-based
# Details: CRTH2 expressing CHO cells incubated with forskolin and PGD2; Eu3+ cryptate-labeled anti-cAMP and d2-labeled cAMP
# Procedure: FRET Assay: To evaluate potency compounds were tested in a FRET based competitive immunoassay in which CRTH2 expressing CHO cells were incubated in the presence of forskolin and PGD2 along with Eu3+ cryptate-labeled anti-cAMP and d2-labeled cAMP.
row,Structure (SMILES),IC50 [nM]
1,"Cc1c(-c2nn(Cc3ccc(Cl)cc3)c(=O)c3ccccc23)c2cc(Cl)ccc2n1CC(=O)O [Example 1, 2-(5-Chloro-3-(3-(4-chlorobenzyl)-4-oxo-3,4-dihydrophthalazin-1-yl)-2-methyl-1H-indol-1-yl)acetic acid]",15
2,"Cc1c(-c2nn(Cc3ccc(Cl)c(F)c3)c(=O)c3ccccc23)c2cc(Cl)ccc2n1CC(=O)O [Example 2, 2-(5-Chloro-3-(3-(4-chloro-3-fluorobenzyl)-4-oxo-3,4-dihydrophthalazin-1-yl)-2-methyl-1H-indol-1-yl)acetic acid]",18
3,"Cc1c(-c2nn(Cc3ccc(C(F)(F)F)c(F)c3)c(=O)c3ccccc23)c2cc(Cl)ccc2n1CC(=O)O [Example 3, 2-(5-Chloro-3-(3-(3-fluoro-4-(trifluoromethyl)benzyl)-4-oxo-3,4-dihydrophthalazin-1-yl)-2-methyl-1H-indol-1-yl)acetic acid]",58
4,"Cc1c(-c2nn(Cc3ccc(Cl)cc3)c(=O)c3ccccc23)c2cc(F)ccc2n1CC(=O)O [Example 4, 2-(3-(3-(4-Chlorobenzyl)-4-oxo-3,4-dihydropthalazin-1-yl)-5-fluoro-2-methyl-1H-indol-1-yl)acetic acid]",9
5,"Cc1c(-c2nn(Cc3ccc(Cl)c(F)c3)c(=O)c3ccccc23)c2cc(F)ccc2n1CC(=O)O [Example 5, 2-(3-(3-(4-Chloro-3-fluorobenzyl)-4-oxo-3,4-dihydrophthalazin-1-yl)-5-fluoro-2-methyl-1H-indol-1-yl)acetic acid]",10
6,"Cc1c(-c2nn(Cc3ccc(C(F)(F)F)c(F)c3)c(=O)c3ccccc23)c2cc(F)ccc2n1CC(=O)O [Example 6, 2-(5-Fluoro-3-(3-(3-fluoro-4-(trifluoromethyl)benzyl)-4-oxo-3,4-dihydrophthalazin-1-yl)-2-methyl-1H-indol-1-yl)acetic acid]",23
7,"Cc1c(-c2nn(Cc3ccc(Cl)cc3Cl)c(=O)c3ccccc23)c2cc(F)ccc2n1CC(=O)O [Example 7, 2-(3-(3-(2,4-dichlorobenzyl)-4-oxo-3,4-dihydrophthalazin-1-yl)-5-fluoro-2-methyl-1H-indol-1-yl)acetic acid]",4
8,"Cc1c(-c2ccc(=O)n(Cc3ccc(Cl)c(F)c3)n2)c2cc(Cl)ccc2n1CC(=O)O [Example 8, 2-(5-Chloro-3-(1-(4-chloro-3-fluorobenzyl)-6-oxo-1,6-dihydropyridazin-3-yl)-2-methyl-1H-indol-1-yl)acetic acid]",5
9,"Cc1c(-c2ccc(=O)n(Cc3ccc(Cl)cc3)n2)c2cc(Cl)ccc2n1CC(=O)O [Example 9, 2-(5-Chloro-3-(1-(4-chlorobenzyl)-6-oxo-1,6-dihydropyridazin-3-yl)-2-methyl-1H-indol-1-yl)acetic acid]",21
10,"Cc1c(-c2ccc(=O)n(Cc3ccccc3)n2)c2cc(Cl)cc(F)c2n1CC(=O)O [Example 10, 2-(3-(1-Benzyl-6-oxo-1,6-dihydropyridazin-3-yl)-5-chloro-7-fluoro-2-methyl-1H-indol-1-yl)acetic acid]",106
11,"Cc1c(-c2nn(Cc3ccccc3)c(=O)c3ccccc23)c2cc(Cl)cc(F)c2n1CC(=O)O [Example 11, 2-(3-(3-Benzyl-4-oxo-3,4-dihydrophthalazin-1-yl)-5-chloro-7-fluoro-2-methyl-1H-indol-1-yl)acetic acid]",39
12,"Cc1c(-c2ccc(=O)n(Cc3ccc(Cl)c(F)c3)n2)c2cc(F)ccc2n1CC(=O)O [Example 12, 2-(3-(1-(4-chloro-3-fluorobenzyl)-6-oxo-1,6-dihydropyridazin-3-yl)-5-fluoro-2-methyl-1H-indol-1-yl)acetic acid]",6
13,"Cc1c(-c2ccc(=O)n(Cc3ccc(Cl)cc3)n2)c2cc(F)ccc2n1CC(=O)O [Example 13, 2-(3-(1-(4-Chlorobenzyl)-6-oxo-1,6-dihydropyridazin-3-yl)-5-fluoro-2-methyl-1H-indol-1-yl)acetic acid]",5
14,"Cc1c(-c2nn(Cc3ccccc3)c(=O)c3ccccc23)c2cc(S(C)(=O)=O)cc(Cl)c2n1CC(=O)O [Example 14, 2-(3-(3-Benzyl-4-oxo-3,4-dihydrophthalazin-1-yl)-7-chloro-2-methyl-5-(methylsulfonyl)-1H-indol-1-yl)acetic acid]",169
15,"Cc1c(-c2nn(Cc3ccccc3)c(=O)c3ccccc23)c2cc(S(C)(=O)=O)cc(F)c2n1CC(=O)O [Example 15, 2-(3-(3-Benzyl-4-oxo-3,4-dihydrophthalazin-1-yl)-7-fluoro-2-methyl-5-(methylsulfonyl)-1H-indol-1-yl)acetic acid]",214
16,"COc1ccc2c(c1)c(-c1nn(Cc3ccccc3)c(=O)c3ccccc13)c(C)n2CC(=O)O [Example 16, 2-(3-(3-Benzyl-4-oxo-3,4-dihydrophthalazin-1-yl)-5-methoxy-2-methyl-1H-indol-1-yl)acetic acid]",31
17,"Cc1c(-c2ccc(=O)n(Cc3ccccc3)n2)c2cc(S(C)(=O)=O)cc(F)c2n1CC(=O)O [Example 17, 2-(3-(1-Benzyl-6-oxo-1,6-dihydropyridazin-3-yl)-7-fluoro-2-methyl-5-(methylsulfonyl)-1H-indol-1-yl)acetic acid]",2780

row,Structure (SMILES),IC50 [nM]
1,"COc1ccc2c(c1)c(-c1ccc(=O)n(Cc3ccccc3)n1)c(C)n2CC(=O)O [Example 18, 2-(3-(1-Benzyl-6-oxo-1,6-dihydropyridazin-3-yl)-5-methoxy-2-methyl-1H-indol-1-yl)acetic acid]",192
2,"COc1ccc2c(c1)c(-c1nn(C(C)C)c(=O)c3ccccc13)c(C)n2CC(=O)O [Example 19, 2-(3-(3-Isopropyl-4-oxo-3,4-dihydrophthalazin-1-yl)-5-methoxy-2-methyl-1H-indol-1-yl)acetic acid]",109
3,"Cc1c(Cc2ccc(=O)n(Cc3ccc(F)cc3F)c2)c2cc(F)ccc2n1CC(=O)O [Example 20, 2-(3-((1-(2,4-Difluorobenzyl)-6-oxo-1,6-dihydropyridin-3-yl)methyl)-5-fluoro-2-methyl-1H-indol-1-yl)acetic acid]",5
4,"Cc1c(Cc2ccc(=O)n(Cc3ccc(F)cc3F)c2)c2ccccc2n1CC(=O)O [Example 21, 2-(3-((1-(2,4-Difluorobenzyl)-6-oxo-1,6-dihydropyridin-3-yl)methyl)-2-methyl-1H-indol-1-yl)acetic acid]",18
5,Cc1c(Cc2ccc(=O)n(C(C)C)c2)c2ccccc2n1CC(=O)O [Example 22],765
6,"Cc1c(Cc2ccc(=O)n(Cc3cc(F)c(F)cc3F)c2)c2cc(F)ccc2n1CC(=O)O [Example 23, 2-(5-Fluoro-2-methyl-3-((6-oxo-1-(2,4,5-trifluorobenzyl)-1,6-dihydro-pyridin-3-yl)methyl)-1H-indol-1-yl)acetic acid]",17
7,Cc1c(Cc2ccc(=O)n(Cc3cc(F)c(F)cc3F)c2)c2ccccc2n1CC(=O)O [Example 24],28
8,"Cc1c(Cc2ccc(=O)n(Cc3cc(F)ccc3F)c2)c2ccccc2n1CC(=O)O [Example 25, 2-(3-((1-(2,5-Difluorobenzyl)-6-oxo-1,6-dihydropyridin-3-yl)methyl)-2-methyl-1H-indol-1-yl)acetic acid]",7
9,"Cc1c(Cc2ccc(=O)n(Cc3cc(F)ccc3F)c2)c2cc(F)ccc2n1CC(=O)O [Example 26, 2-(3-((1-(2,5-Difluorobenzyl)-6-oxo-1,6-dihydropyridin-3-yl)methyl)-5-fluoro-2-methyl-1H-indol-1-yl)acetic acid]",8
10,"Cc1c(Cc2ccc(=O)n(C(C)C)c2)c2cc(F)ccc2n1CC(=O)O [Example 27, 2-(5-fluoro-3-((1-isopropyl-6-oxo-1,6-dihydropyridin-3-yl)methyl)-2-methyl-1H-indol-1-yl)acetic acid]",137
11,"Cc1c(Cc2ccc(=O)n(Cc3cccc(F)c3F)c2)c2cc(F)ccc2n1CC(=O)O [Example 28, 2-(3-((1-(2,3-Difluorobenzyl)-6-oxo-1,6-dihydropyridin-3-yl)methyl)-5-fluoro-2-methyl-1H-indol-1-yl)acetic acid]",17
12,Cc1c(Cc2ccc(=O)n(Cc3cccc(F)c3F)c2)c2ccccc2n1CC(=O)O [Example 29],72
13,"Cc1c(Cc2ccc(=O)n(Cc3ccc(F)c(F)c3)c2)c2ccccc2n1CC(=O)O [Example 30, 2-(3-((1-(3,4-Difluorobenzyl)-6-oxo-1,6-dihydropyridin-3-yl)methyl)-2-methyl-1H-indol-1-yl)acetic acid]",153
14,"Cc1c(Cc2ccc(=O)n(Cc3ccccc3F)c2)c2ccccc2n1CC(=O)O [Example 31, 2-(3-((1-(2-Fluorobenzyl)-6-oxo-1,6-dihydropyridin-3-yl)methyl)-2-methyl-1H-indol-1-yl)acetic acid]",41
15,"Cc1c(Cc2ccc(=O)n(Cc3ccccc3F)c2)c2cc(F)ccc2n1CC(=O)O [Example 32, 2-(5-Fluoro-3-((1-(2-fluorobenzyl)-6-oxo-1,6-dihydropyridin-3-yl)methyl)-2-methyl-1H-indol-1-yl)acetic acid]",8
16,"Cc1c(Cc2ccc(=O)n(Cc3ccc(F)c(F)c3)c2)c2cc(F)ccc2n1CC(=O)O [Example 33, 2-(3-((1-(3,4-difluorobenzyl)-6-oxo-1,6-dihydropyridin-3-yl)methyl)-5-fluoro-2-methyl-1H-indol-1-yl)acetic acid]",11
17,"Cc1c(Cc2ccc(=O)n(Cc3cccc(F)c3)c2)c2ccccc2n1CC(=O)O [Example 34, 2-(3-((1-(3-Fluorobenzyl)-6-oxo-1,6-dihydropyridin-3-yl)methyl)-2-methyl-1H-indol-1-yl)acetic acid]",54
